# Data as given in patent US20180111893A1, “POLYCATIONIC AMPHIPHILES AND POLYMERS THEREOF AS ANTIMICROBIAL AGENTS AND METHODS USING SAME” (Temple University-Of The Commonwealth System of Higher …, priority 2015, published 2018).
# Tested on: Staphylococcus aureus (SA; MSSA SH1000)
# Assay: Minimum inhibitory concentration (MIC)
# Type: cell-based
# Details: Table 6
# Procedure: (§1) As used herein, the term “minimum inhibitory concentration (MIC)” refers to the lowest concentration of an antimicrobial agent that will inhibit the visible growth of a microorganism after overnight incubation. MIC values against bacteria, for example, the Gram-positive Staphylococcus aureus and Enterococcus faecalis and the Gram-negative Escherichia coli and Pseudomonas aeruginosa were determined by standard methods. See also P. A. Wayne, Methods for Dilution Antimicrobial Tests for Bacteria that Grow Aerobically; Approved Standard, Ninth Edition, 2012, CLSI Document M07-A9, Vol. 32 No. 2, which is incorporated by reference herein in its entirety.
# (§2) Compounds were serially diluted two-fold from a 10% DMSO/aqueous stock solution to yield twelve test concentrations. Overnight S. aureus, E. faecalis, E. coli, P. aeruginosa, CA-MRSA, and HA-MRSA cultures diluted to ca. 10^6 cfu/mL in Mueller-Hinton media and 100 μL were inoculated into each well of a U-bottom 96-well plate (BD Biosciences, BD351177) containing 100 μL of compound solution. Plates were incubated statically at 37° C. for 72 hours upon which time wells were evaluated visually for bacterial growth. The MIC was determined as the lowest concentration of compound resulting in no bacterial growth visible to the naked eye, based on the majority of three independent experiments. Positive and negative DMSO/aqueous solution and media controls were conducted for each trial. See Peng et al., 2011, Chem. Comm. 47:4896-4898.
# as §2, with “trial.” for “trial. See Peng et al., 2011, Chem. Comm. 47:4896-4898.”
row,SMILES,MIC SA
1,"CCCCCCCCCCCC[N+](C)(C)CCC[N+](CCC[N+](C)(C)CCCCCCCCCCCC)(CCC[N+](C)(C)CCCCCCCCCCCC)Cc1ccccc1 [sT-12,12,12,Bn]",1 µM
2,"CCCCCCCCCCCCC[N+](C)(C)CCCN(CCC[N+](C)(C)CCCCCCCCCCCCC)CCC[N+](C)(C)CCCCCCCCCCCCC [sT-13,13,13,0]",1 µM
3,"CCCCCCCCCCCCC[N+](C)(C)CCC[N+](C)(CCC[N+](C)(C)CCCCCCCCCCCCC)CCC[N+](C)(C)CCCCCCCCCCCCC [sT-13,13,13,1]",2 µM
4,"C=CC[N+](CCC[N+](C)(C)CCCCCCCCCCCCC)(CCC[N+](C)(C)CCCCCCCCCCCCC)CCC[N+](C)(C)CCCCCCCCCCCCC [sT-13,13,13,3A]",2 µM
5,"CCCCCCCCCCCCCC[N+](C)(C)CCCN(CCC[N+](C)(C)CCCCCCCCCCCCCC)CCC[N+](C)(C)CCCCCCCCCCCCCC [sT-14,14,14,0]",1 µM
6,"CCCCCCCCCCCCCC[N+](C)(C)CCC[N+](C)(CCC[N+](C)(C)CCCCCCCCCCCCCC)CCC[N+](C)(C)CCCCCCCCCCCCCC [sT-14,14,14,1]",4 µM
7,"C=CC[N+](CCC[N+](C)(C)CCCCCCCCCCCCCC)(CCC[N+](C)(C)CCCCCCCCCCCCCC)CCC[N+](C)(C)CCCCCCCCCCCCCC [sT-14,14,14,3A]",2 µM

# Tested on: community-acquired methicillin-resistant Staphylococcus aureus CA-MRSA (USA300-0114)
# Assay: Minimum inhibitory concentration (MIC)
# Type: cell-based
# Details: Table 6
# Procedure: as §1, §2
# as §2, with “trial.” for “trial. See Peng et al., 2011, Chem. Comm. 47:4896-4898.”
row,SMILES,MIC CA-MRSA
1,"CCCCCCCCCCCC[N+](C)(C)CCC[N+](CCC[N+](C)(C)CCCCCCCCCCCC)(CCC[N+](C)(C)CCCCCCCCCCCC)Cc1ccccc1 [sT-12,12,12,Bn]",0.5 µM
2,"CCCCCCCCCCCCC[N+](C)(C)CCCN(CCC[N+](C)(C)CCCCCCCCCCCCC)CCC[N+](C)(C)CCCCCCCCCCCCC [sT-13,13,13,0]",0.5 µM
3,"CCCCCCCCCCCCC[N+](C)(C)CCC[N+](C)(CCC[N+](C)(C)CCCCCCCCCCCCC)CCC[N+](C)(C)CCCCCCCCCCCCC [sT-13,13,13,1]",0.5 µM
4,"C=CC[N+](CCC[N+](C)(C)CCCCCCCCCCCCC)(CCC[N+](C)(C)CCCCCCCCCCCCC)CCC[N+](C)(C)CCCCCCCCCCCCC [sT-13,13,13,3A]",1 µM
5,"CCCCCCCCCCCCCC[N+](C)(C)CCCN(CCC[N+](C)(C)CCCCCCCCCCCCCC)CCC[N+](C)(C)CCCCCCCCCCCCCC [sT-14,14,14,0]",0.5 µM
6,"CCCCCCCCCCCCCC[N+](C)(C)CCC[N+](C)(CCC[N+](C)(C)CCCCCCCCCCCCCC)CCC[N+](C)(C)CCCCCCCCCCCCCC [sT-14,14,14,1]",2 µM
7,"C=CC[N+](CCC[N+](C)(C)CCCCCCCCCCCCCC)(CCC[N+](C)(C)CCCCCCCCCCCCCC)CCC[N+](C)(C)CCCCCCCCCCCCCC [sT-14,14,14,3A]",2 µM

# Tested on: Enterococcus faecalis (OG1RF)
# Assay: Minimum inhibitory concentration (MIC)
# Type: cell-based
# Details: Table 6
# Procedure: as §1, §2
# as §2, with “trial.” for “trial. See Peng et al., 2011, Chem. Comm. 47:4896-4898.”
row,SMILES,MIC EF
1,"CCCCCCCCCCCC[N+](C)(C)CCC[N+](CCC[N+](C)(C)CCCCCCCCCCCC)(CCC[N+](C)(C)CCCCCCCCCCCC)Cc1ccccc1 [sT-12,12,12,Bn]",0.5 µM
2,"CCCCCCCCCCCCC[N+](C)(C)CCCN(CCC[N+](C)(C)CCCCCCCCCCCCC)CCC[N+](C)(C)CCCCCCCCCCCCC [sT-13,13,13,0]",1 µM
3,"CCCCCCCCCCCCC[N+](C)(C)CCC[N+](C)(CCC[N+](C)(C)CCCCCCCCCCCCC)CCC[N+](C)(C)CCCCCCCCCCCCC [sT-13,13,13,1]",1 µM
4,"C=CC[N+](CCC[N+](C)(C)CCCCCCCCCCCCC)(CCC[N+](C)(C)CCCCCCCCCCCCC)CCC[N+](C)(C)CCCCCCCCCCCCC [sT-13,13,13,3A]",1 µM
5,"CCCCCCCCCCCCCC[N+](C)(C)CCCN(CCC[N+](C)(C)CCCCCCCCCCCCCC)CCC[N+](C)(C)CCCCCCCCCCCCCC [sT-14,14,14,0]",2 µM
6,"CCCCCCCCCCCCCC[N+](C)(C)CCC[N+](C)(CCC[N+](C)(C)CCCCCCCCCCCCCC)CCC[N+](C)(C)CCCCCCCCCCCCCC [sT-14,14,14,1]",2 µM
7,"C=CC[N+](CCC[N+](C)(C)CCCCCCCCCCCCCC)(CCC[N+](C)(C)CCCCCCCCCCCCCC)CCC[N+](C)(C)CCCCCCCCCCCCCC [sT-14,14,14,3A]",2 µM

# Tested on: Escherichia coli (MC4100)
# Assay: Minimum inhibitory concentration (MIC)
# Type: cell-based
# Details: Table 6
# Procedure: as §1, §2
# as §2, with “trial.” for “trial. See Peng et al., 2011, Chem. Comm. 47:4896-4898.”
row,SMILES,MIC EC
1,"CCCCCCCCCCCC[N+](C)(C)CCC[N+](CCC[N+](C)(C)CCCCCCCCCCCC)(CCC[N+](C)(C)CCCCCCCCCCCC)Cc1ccccc1 [sT-12,12,12,Bn]",0.5 µM
2,"CCCCCCCCCCCCC[N+](C)(C)CCCN(CCC[N+](C)(C)CCCCCCCCCCCCC)CCC[N+](C)(C)CCCCCCCCCCCCC [sT-13,13,13,0]",1 µM
3,"CCCCCCCCCCCCC[N+](C)(C)CCC[N+](C)(CCC[N+](C)(C)CCCCCCCCCCCCC)CCC[N+](C)(C)CCCCCCCCCCCCC [sT-13,13,13,1]",1 µM
4,"C=CC[N+](CCC[N+](C)(C)CCCCCCCCCCCCC)(CCC[N+](C)(C)CCCCCCCCCCCCC)CCC[N+](C)(C)CCCCCCCCCCCCC [sT-13,13,13,3A]",1 µM
5,"CCCCCCCCCCCCCC[N+](C)(C)CCCN(CCC[N+](C)(C)CCCCCCCCCCCCCC)CCC[N+](C)(C)CCCCCCCCCCCCCC [sT-14,14,14,0]",4 µM
6,"CCCCCCCCCCCCCC[N+](C)(C)CCC[N+](C)(CCC[N+](C)(C)CCCCCCCCCCCCCC)CCC[N+](C)(C)CCCCCCCCCCCCCC [sT-14,14,14,1]",4 µM
7,"C=CC[N+](CCC[N+](C)(C)CCCCCCCCCCCCCC)(CCC[N+](C)(C)CCCCCCCCCCCCCC)CCC[N+](C)(C)CCCCCCCCCCCCCC [sT-14,14,14,3A]",4 µM

# Tested on: Pseudomonas aeruginosa (PAO1)
# Assay: Minimum inhibitory concentration (MIC)
# Type: cell-based
# Details: Table 6
# Procedure: as §1, §2
# as §2, with “trial.” for “trial. See Peng et al., 2011, Chem. Comm. 47:4896-4898.”
row,SMILES,MIC PA
1,"CCCCCCCCCCCC[N+](C)(C)CCC[N+](CCC[N+](C)(C)CCCCCCCCCCCC)(CCC[N+](C)(C)CCCCCCCCCCCC)Cc1ccccc1 [sT-12,12,12,Bn]",2 µM
2,"CCCCCCCCCCCCC[N+](C)(C)CCCN(CCC[N+](C)(C)CCCCCCCCCCCCC)CCC[N+](C)(C)CCCCCCCCCCCCC [sT-13,13,13,0]",8 µM
3,"CCCCCCCCCCCCC[N+](C)(C)CCC[N+](C)(CCC[N+](C)(C)CCCCCCCCCCCCC)CCC[N+](C)(C)CCCCCCCCCCCCC [sT-13,13,13,1]",4 µM
4,"C=CC[N+](CCC[N+](C)(C)CCCCCCCCCCCCC)(CCC[N+](C)(C)CCCCCCCCCCCCC)CCC[N+](C)(C)CCCCCCCCCCCCC [sT-13,13,13,3A]",4 µM
5,"CCCCCCCCCCCCCC[N+](C)(C)CCCN(CCC[N+](C)(C)CCCCCCCCCCCCCC)CCC[N+](C)(C)CCCCCCCCCCCCCC [sT-14,14,14,0]",16 µM
6,"CCCCCCCCCCCCCC[N+](C)(C)CCC[N+](C)(CCC[N+](C)(C)CCCCCCCCCCCCCC)CCC[N+](C)(C)CCCCCCCCCCCCCC [sT-14,14,14,1]",32 µM
7,"C=CC[N+](CCC[N+](C)(C)CCCCCCCCCCCCCC)(CCC[N+](C)(C)CCCCCCCCCCCCCC)CCC[N+](C)(C)CCCCCCCCCCCCCC [sT-14,14,14,3A]",32 µM

# Tested on: hospital-acquired methicillin-resistant Staphylococcus aureus HA-MRSA (ATCC 33591)
# Assay: Minimum inhibitory concentration (MIC)
# Type: cell-based
# Details: Table 6
# Procedure: as §1, §2
# as §2, with “trial.” for “trial. See Peng et al., 2011, Chem. Comm. 47:4896-4898.”
row,SMILES,MIC HA-MRSA
1,"CCCCCCCCCCCC[N+](C)(C)CCC[N+](CCC[N+](C)(C)CCCCCCCCCCCC)(CCC[N+](C)(C)CCCCCCCCCCCC)Cc1ccccc1 [sT-12,12,12,Bn]",0.5 µM
2,"CCCCCCCCCCCCC[N+](C)(C)CCCN(CCC[N+](C)(C)CCCCCCCCCCCCC)CCC[N+](C)(C)CCCCCCCCCCCCC [sT-13,13,13,0]",1 µM
3,"CCCCCCCCCCCCC[N+](C)(C)CCC[N+](C)(CCC[N+](C)(C)CCCCCCCCCCCCC)CCC[N+](C)(C)CCCCCCCCCCCCC [sT-13,13,13,1]",1 µM
4,"C=CC[N+](CCC[N+](C)(C)CCCCCCCCCCCCC)(CCC[N+](C)(C)CCCCCCCCCCCCC)CCC[N+](C)(C)CCCCCCCCCCCCC [sT-13,13,13,3A]",1 µM
5,"CCCCCCCCCCCCCC[N+](C)(C)CCCN(CCC[N+](C)(C)CCCCCCCCCCCCCC)CCC[N+](C)(C)CCCCCCCCCCCCCC [sT-14,14,14,0]",2 µM
6,"CCCCCCCCCCCCCC[N+](C)(C)CCC[N+](C)(CCC[N+](C)(C)CCCCCCCCCCCCCC)CCC[N+](C)(C)CCCCCCCCCCCCCC [sT-14,14,14,1]",2 µM
7,"C=CC[N+](CCC[N+](C)(C)CCCCCCCCCCCCCC)(CCC[N+](C)(C)CCCCCCCCCCCCCC)CCC[N+](C)(C)CCCCCCCCCCCCCC [sT-14,14,14,3A]",2 µM
